Our source for the IC50 values is patent US20100076015A1, “Aminopyridine Derivatives” (VANTIA LIMITED, priority 2008, published 2010).

The IC50 is the concentration that gives 50% inhibition. Low readings indicate higher potency, high ones lower potency.

This test deals with T1, Human KLK1 (Homo sapiens, UniProt P06870).
T1 construct: purchased Callbiochem (Calbiochem)
T1 sequence (P06870 25-262): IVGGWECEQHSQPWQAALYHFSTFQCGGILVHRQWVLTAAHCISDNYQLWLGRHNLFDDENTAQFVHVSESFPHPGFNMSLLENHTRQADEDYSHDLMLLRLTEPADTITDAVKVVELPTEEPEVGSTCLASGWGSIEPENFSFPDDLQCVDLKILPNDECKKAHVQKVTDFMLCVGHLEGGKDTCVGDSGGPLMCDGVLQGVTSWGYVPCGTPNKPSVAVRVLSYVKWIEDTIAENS
Briefly: Determination of the IC50 for KLK1 (fluorogenic substrate H-DVal-Leu-Arg-AFC). The class given is biochemical. To be noted: 37° C. In outline: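 Human KLK1 incubated at 37° C with fluorogenic substrate H-DVal-Leu-Arg-AFC and a range of test compound concentrations. Residual activity taken as initial reaction rate from absorbance change at 410 nm; IC50 derived from these rates.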
`CC(C)N1CCC[C@@H]1C(=O)N[C@@H](Cc1c[nH]c2ccccc12)C(=O)NCc1ccc(N)nc1` [Example 130, (R)-1-Isopropyl-pyrrolidine-2-carboxylic acid [(S)-1-[(6-amino-pyridin-3-ylmethyl)-carbamoyl]-2-(1H-indol-3-yl)-ethyl]-amide] yielded an IC50 of 5 nM.

On to `CCCN1CCC[C@@H]1C(=O)N[C@@H](Cc1ccc(F)c(F)c1)C(=O)NCc1ccc(N)nc1` [Example 132, (R)-1-Propyl-pyrrolidine-2-carboxylic acid [(S)-1-[(6-amino-pyridin-3-ylmethyl)-carbamoyl]-2-(3,4-difluoro-phenyl)-ethyl]-amide], for which the IC50 turned out to be 6.4 nM.

Take `CC(C)CN1CCC[C@@H]1C(=O)N[C@@H](Cc1ccc(F)c(F)c1)C(=O)NCc1ccc(N)nc1` [Example 133, (R)-1-Isobutyl-pyrrolidine-2-carboxylic acid [(S)-1-[(6-amino-pyridin-3-ylmethyl)-carbamoyl]-2-(3,4-difluoro-phenyl)-ethyl]-amide]: the IC50 amounted to 16.5 nM. `COC(=O)CN1CCC[C@@H]1C(=O)N[C@@H](Cc1ccc(F)c(F)c1)C(=O)NCc1ccc(N)nc1` [Example 134, {(R)-2-[(S)-1-[(6-Amino-pyridin-3-ylmethyl)-carbamoyl]-2-(3,4-difluoro-phenyl)-ethylcarbamoyl]-pyrrolidin-1-yl}-acetic acid methyl ester] gave an IC50 of 13.5 nM. With `Nc1ccc(CNC(=O)[C@H](Cc2ccc(F)c(F)c2)NC(=O)[C@H]2CCCN2CC(=O)O)cn1` [Example 135, {(R)-2-[(S)-1-[(6-Amino-pyridin-3-ylmethyl)-carbamoyl]-2-(3,4-difluoro-phenyl)-ethylcarbamoyl]-pyrrolidin-1-yl}-acetic acid], the midpoint of inhibition, the IC50, lay at 17.3 nM. Under `CCN1CCC[C@@H]1C(=O)N[C@@H](Cc1ccc(F)cc1)C(=O)NCc1ccc(N)nc1` [Example 136, (R)-1-Ethyl-pyrrolidine-2-carboxylic acid [(S)-1-[(6-amino-pyridin-3-ylmethyl)-carbamoyl]-2-(4-fluoro-phenyl)-ethyl]-amide] stands 8.6 nM. `CCN1CCC[C@@H]1C(=O)N[C@@H](Cc1cccc(C)c1)C(=O)NCc1ccc(N)nc1` [Example 137, (R)-1-Ethyl-pyrrolidine-2-carboxylic acid {(S)-1-[(6-amino-pyridin-3-ylmethyl)-carbamoyl]-2-m-tolyl-ethyl}-amide]: the IC50 is 288 nM. `CCN1CCC[C@@H]1C(=O)N[C@@H](Cc1cccc(Cl)c1)C(=O)NCc1ccc(N)nc1` [Example 138, (R)-1-Ethyl-pyrrolidine-2-carboxylic acid [(S)-1-[(6-amino-pyridin-3-ylmethyl)-carbamoyl]-2-(3-chloro-phenyl)-ethyl]-amide]: 39.8 nM corresponded to half-maximal inhibition (IC50). Under `CCCN1CCC[C@@H]1C(=O)N[C@@H](Cc1ccc(F)cc1)C(=O)NCc1ccc(N)nc1` [Example 139, (R)-1-Propyl-pyrrolidine-2-carboxylic acid [(S)-1-[(6-amino-pyridin-3-ylmethyl)-carbamoyl]-2-(4-fluoro-phenyl)-ethyl]-amide] stands 3.7 nM. In turn, `Nc1ccc(CNC(=O)[C@H](Cc2ccc(F)c(F)c2)NC(=O)[C@H]2CCCN2Cc2ccccc2)cn1` [Example 140, (R)-1-Benzyl-pyrrolidine-2-carboxylic acid [(S)-1-[(6-amino-pyridin-3-ylmethyl)-carbamoyl]-2-(3,4-difluoro-phenyl)-ethyl]-amide] yielded an IC50 of 4.3 nM. Compound `Nc1ccc(CNC(=O)[C@H](Cc2ccc(Cl)c(Cl)c2)NC(=O)[C@H]2CCCN2Cc2ccccc2)cn1` [Example 141, (R)-1-Benzyl-pyrrolidine-2-carboxylic acid [(S)-1-[(6-amino-pyridin-3-ylmethyl)-carbamoyl]-2-(3,4-dichloro-phenyl)-ethyl]-amide] displayed an IC50 of 13.7 nM. In turn, `Nc1ccc(CNC(=O)[C@H](Cc2ccc(F)c(F)c2)NC(=O)[C@H]2CCCN2Cc2ccc(Cl)cc2)cn1` [Example 142, (R)-1-(4-Chloro-benzyl)-pyrrolidine-2-carboxylic acid [(S)-1-[(6-amino-pyridin-3-ylmethyl)-carbamoyl]-2-(3,4-difluoro-phenyl)-ethyl]-amide] registered an IC50 of 15 nM. Turning to `Nc1ccc(CNC(=O)[C@H](Cc2ccc(F)c(F)c2)NC(=O)[C@H]2CCCN2Cc2cccc(Cl)c2)cn1` [Example 143, (R)-1-(3-Chloro-benzyl)-pyrrolidine-2-carboxylic acid [(S)-1-[(6-amino-pyridin-3-ylmethyl)-carbamoyl]-2-(3,4-difluoro-phenyl)-ethyl]-amide], the IC50 turned out to be 21 nM. With `CN1CCCC[C@@H]1C(=O)N[C@@H](Cc1ccc(F)c(F)c1)C(=O)NCc1ccc(N)nc1` [Example 144, (R)-1-Methyl-piperidine-2-carboxylic acid [(S)-1-[(6-amino-pyridin-3-ylmethyl)-carbamoyl]-2-(3,4-difluoro-phenyl)-ethyl]-amide], half-maximal inhibition (IC50) required 20.9 nM. For `CC(C)N1CCCC[C@@H]1C(=O)N[C@@H](Cc1ccc(F)c(F)c1)C(=O)NCc1ccc(N)nc1` [Example 146, (R)-1-Isopropyl-piperidine-2-carboxylic acid [(S)-1-[(6-amino-pyridin-3-ylmethyl)-carbamoyl]-2-(3,4-difluoro-phenyl)-ethyl]-amide], the IC50 stood at 102 nM.

`CC(C)N1CCCC[C@@H]1C(=O)N[C@@H](Cc1ccc(F)cc1)C(=O)NCc1ccc(N)nc1` [Example 147, (R)-1-Isopropyl-piperidine-2-carboxylic acid [(S)-1-[(6-amino-pyridin-3-ylmethyl)-carbamoyl]-2-(4-fluoro-phenyl)-ethyl]-amide] yielded an IC50 of 49.6 nM. Take `CN1C[C@H](O)C[C@@H]1C(=O)N[C@@H](Cc1ccc(F)c(F)c1)C(=O)NCc1ccc(N)nc1` [Example 148, (2R,4R)-4-Hydroxy-1-methyl-pyrrolidine-2-carboxylic acid [(S)-1-[(6-amino-pyridin-3-ylmethyl)-carbamoyl]-2-(3,4-difluoro-phenyl)-ethyl]-amide]: the IC50 is 55.7 nM.

`CN1Cc2ccccc2C[C@@H]1C(=O)N[C@@H](Cc1ccc(F)c(F)c1)C(=O)NCc1ccc(N)nc1` [Example 149, (R)-2-Methyl-1,2,3,4-tetrahydro-isoquinoline-3-carboxylic acid [(S)-1-[(6-amino-pyridin-3-ylmethyl)-carbamoyl]-2-(3,4-difluoro-phenyl)-ethyl]-amide] yielded an IC50 of 36.8 nM.

In turn, `CC(C)N(C)CC(=O)N[C@@H](Cc1ccc(Cl)c(Cl)c1)C(=O)NCc1ccc(N)nc1` [Example 150, (S)—N-(6-Amino-pyridin-3-ylmethyl)-3-(3,4-dichloro-phenyl)-2-[2-(isopropyl-methyl-amino)-acetylamino]-propionamide] had an IC50 of 12 nM. With `CC(C)N(C)[C@H](C)C(=O)N[C@@H](Cc1ccc(Cl)c(Cl)c1)C(=O)NCc1ccc(N)nc1` [Example 151, (R)—N-[(S)-1-[(6-Amino-pyridin-3-ylmethyl)-carbamoyl]-2-(3,4-dichloro-phenyl)-ethyl]-2-(isopropyl-methyl-amino)-propionamide], the IC50 was determined as 17.7 nM. In the case of `CN(CC(=O)N[C@@H](Cc1ccc(Cl)c(Cl)c1)C(=O)NCc1ccc(N)nc1)Cc1ccccc1` [Example 152, (S)—N-(6-Amino-pyridin-3-ylmethyl)-2-[2-(benzyl-methyl-amino)-acetylamino]-3-(3,4-dichloro-phenyl)-propionamide], the IC50 worked out at 5.7 nM.

On to `CN(C)CC(=O)N[C@@H](Cc1ccc(Cl)c(Cl)c1)C(=O)NCc1ccc(N)nc1` [Example 153, (S)—N-(6-Amino-pyridin-3-ylmethyl)-3-(3,4-dichloro-phenyl)-2-(2-dimethylamino-acetylamino)-propionamide], for which half-maximal inhibition (IC50) was put at 69.9 nM. As for `CC(C)CN(C)CC(=O)N[C@@H](Cc1ccc(Cl)c(Cl)c1)C(=O)NCc1ccc(N)nc1` [Example 154, (S)—N-(6-Amino-pyridin-3-ylmethyl)-3-(3,4-dichloro-phenyl)-2-[2-(isobutyl-methyl-amino)-acetylamino]-propionamide], the figure is 216 nM; as for `CCC(C)[C@H](C(=O)N[C@@H](Cc1ccc(Cl)c(Cl)c1)C(=O)NCc1ccc(N)nc1)N(C)C(C)C` (stereo partly drawn) [Example 155, (R)-2-(Isopropyl-methyl-amino)-3-methyl-pentanoic acid [(S)-1-[(6-amino-pyridin-3-ylmethyl)-carbamoyl]-2-(3,4-dichloro-phenyl)-ethyl]-amide], 63.3 nM. For `CC(C)N(C)CC(=O)N[C@@H](Cc1ccc(F)c(F)c1)C(=O)NCc1ccc(N)nc1` [Example 156, (S)—N-(6-Amino-pyridin-3-ylmethyl)-3-(3,4-difluoro-phenyl)-2-[2-(isopropyl-methyl-amino)-acetylamino]-propionamide], the concentration for half-maximal inhibition (IC50) worked out at 80.6 nM. Under `CCCN(CCC)CC(=O)N[C@@H](Cc1ccc(F)c(F)c1)C(=O)NCc1ccc(N)nc1` [Example 158, (S)—N-(6-Amino-pyridin-3-ylmethyl)-3-(3,4-difluoro-phenyl)-2-(2-dipropylamino-acetylamino)-propionamide] stands 114 nM.

In the case of `CC(C)CN(CC(=O)N[C@@H](Cc1ccc(F)c(F)c1)C(=O)NCc1ccc(N)nc1)CC(C)C` [Example 159, (S)—N-(6-Amino-pyridin-3-ylmethyl)-3-(3,4-difluoro-phenyl)-2-(2-diisobutylamino-acetylamino)-propionamide], half-maximal inhibition (IC50) required 165 nM. Consider `Nc1ccc(CNC(=O)[C@H](Cc2ccc(F)c(F)c2)NC(=O)CNCCc2ccccc2)cn1` [Example 160, (S)—N-(6-Amino-pyridin-3-ylmethyl)-3-(3,4-difluoro-phenyl)-2-(2-phenethylamino-acetylamino)-propionamide], for which 185 nM corresponded to half-maximal inhibition (IC50). For `CN(CCc1ccccc1)CC(=O)N[C@@H](Cc1ccc(F)c(F)c1)C(=O)NCc1ccc(N)nc1` [Example 161, (S)—N-(6-Amino-pyridin-3-ylmethyl)-3-(3,4-difluoro-phenyl)-2-[2-(methyl-phenethyl-amino)-acetylamino]-propionamide], the IC50 amounted to 93.5 nM.
